A short description of series [1]: Peptide stability in human plasma. It counts as in vitro ADME. The note with it: 100 μg/mL, 37° C.; FIG. 4, 15. As for the experimental part: The stability of peptides was also tested in mouse and human plasma. Briefly, a certain amount of peptides and eucatropine powder (positive control) was accurately weighed. Test compounds were dissolved in 50% methanol-water solution and diluted to 20 mg/mL, and eucatropine was dissolved in dimethylsulfoxide (DMSO) and diluted to 10 mM, as a stock solution. Eucatropine stock solution was diluted to 0.2 mM with DMSO as a working solution. A stop reagent was prepared containing 200 ng/mL midazolam and tolbutamide in acetonitrile. A volume of 300 μL of stop solution was added to each well of a 96-well deep-well plate placed on ice beforehand.
For the stability studies, peptides and eucatropine were spiked into plasma respectively, mixed well, and then 100 μL of each mixture solution was transferred into the pre-cooled stop reagent as 0 time point sample. The remaining mixtures were incubated in a 37° C. water bath with shaking at 100 rpm (n=2). The final incubation concentration was […] for eucatropine and 100 μg/mL for all test compounds.
At desired time points, 100 μL of incubation mixture was transferred to the stop reagent to precipitate proteins. Samples were vortexed and centrifuged at RCF 5000×g for 10 minutes, and supernatant was transferred to a test plate. The samples were analyzed by LC-MS/MS.
Slope was calculated by plotting the natural logarithm of the percentage of remaining amount of test compounds and time, and T1/2 was calculated in accordance with the following formula.
For stability in human plasma, the incubation time was 0, 30, 60 and 120 min for Peptide 1, Peptide 12, Peptide 16 and eucatropine.
The stability of peptides was also tested in rat, mouse and human plasma. Briefly, a certain amount of peptides and eucatropine powder (positive control) was accurately weighed. Test compounds were dissolved in 50% methanol-water solution and diluted to 20 mg/mL, and eucatropine was dissolved in dimethylsulfoxide (DMSO) and diluted to 10 mM, as a stock solution. Eucatropine stock solution was diluted to 0.2 mM with DMSO as a working solution. […]

Series [2] has as its system pancreatic islets. The experiment in a line: Glucose-stimulated insulin secretion (GSIS) of isolated islets. It counts as cell-based, rat. The following applies: 12.0 mM glucose; 10 μg/mL peptide or 100 nM GLP-1; 60 min; FIG. 8. As for the experimental part:
The pancreases were procured from male adult Sprague-Dawley (SD) rats. After 7 days acclimation, the animals were sacrificed by cervical dislocation and the entire pancreas was removed and digested with collagenase to isolate islets. After digestion, islets were maintained at 37° C. in RPMI 1640 (Carlsbad Calif., USA) pH 7.4, containing 10% (v/v) fetal calf serum, 1% penicillin/streptomycin, and 10 mM glucose in a humid atmosphere (5% CO2/95% O2), without the addition of any compound (control), or with the addition of 100 nM glucagon like peptide-1 (GLP-1); or 10 μg/mL Peptide 1, Peptide 12, or Peptide 16, as summarized in Table 4 below. Cultured islets were rinsed in Krebs-Ringer bicarbonate buffer (KRB), pH 7.4, previously gassed with a mixture of CO2/O2 (5/95%), and pre-incubated in 1.0 ml of KRB containing 0.5% (w/v) BSA and 1.5 mM glucose at 37° C. for 45 min. After this period, groups of 5 islets were incubated in 0.6 ml KRB with the addition of 1.5 or 12.0 mM glucose, with or without the addition of peptides for 60 min. At the end of the incubation period, aliquots of the medium were collected for insulin quantitation.

The nature of series [3]: Pharmacokinetics in mouse, subcutaneous bolus. The following applies: male, C57BL/6, plasma, MOUSE (SC), 25 mg/kg; for AUC(0-t): read-out: AUC(0-t); for AUC(0-inf): read-out: AUC(0-∞); for Cmax: read-out: Cmax. It counts as in vivo. On the procedure: (§1) After 7 days acclimation, male Sprague-Dawley (SD) rats weighing 210-250 g, or male C57BL/6 mice, weighing 19-24 g, in good health were used in the study. Peptide 1, Peptide 12 and Peptide 16 were dissolved in sterile normal saline and then they were injected via subcutaneous (sc) bolus or intravenous (iv) bolus at the dose level of 25 mg/kg. Three animals in each group were used for blood collection at the time point of 5 min, 15 min, 30 min, 1 h, 2 h, 4 h, 6 h, 8 h and 24 h post-dose. Blood samples (approximately 400 μL) were collected and placed into tubes containing EDTA-K2 and centrifuged at 8000 rpm for 6 minutes at 4° C. to separate plasma from the samples. The resulting plasma was stored frozen at −80° C. until being analyzed. Plasma concentrations of peptides were determined using tandem mass spectrometry (LC-MS/MS) analysis. A non-compartmental module of WinNonlin® Professional 5.2 (Pharsight; St. Louis Mo.), was used to calculate PK parameters. The abbreviation AUC(0-t) represents area under the curve from the time of dosing to the time of the last observation, the AUC(0-∞) represents area under the curve from the time of dosing to infinity, and the Cmax represents maximum concentration detected.

The nature of series [4]: Pharmacokinetics in rat, subcutaneous bolus (Example VII). It counts as in vivo. The note with it: male, Sprague-Dawley, plasma, RAT (SC), 25 mg/kg; for AUC(0-t): read-out: AUC(0-t); for AUC(0-inf): read-out: AUC(0-∞); for Cmax: read-out: Cmax. On the procedure: as §1
A short description of series [5]: Peptide concentration in plasma and pancreas 30 min post dose. The following applies: male SD rats, sc bolus 25 mg/kg, 30 min post-dose; for level at 0.5 h: male, Sprague-Dawley, rat, sc, 25 mg/kg. It counts as in vivo, rat. As for the experimental part: To further characterize the pharmacokinetic (PK) properties of peptides, peptide concentration in pancreas—the target organ, was determined 30 min post dose. Briefly, INGAP-PP (Peptide 1), Peptide 12, or Peptide 31 was dissolved in sterile normal saline and then was administered via subcutaneous (sc) bolus at the dose level of 25 mg/kg to male Sprague-Dawley (SD) rats. Five animals in each group were used for blood and pancreas collection at the time point of 30 min post-dose. Blood samples (approximately 400 μL) were collected and placed into tubes containing EDTA-K2 and centrifuged at 8000 rpm for 6 minutes at 4° C. to separate plasma from the samples. After blood extraction and animal sacrifice, the pancreas was removed immediately from each animal, cleared of fat and lymph nodes, weighed, and placed into 5 fold volume of ice cold sterile normal saline with protease inhibitor cocktail (Merck Millipore, catalogue #539137) to homogenize with a homogenizer.
The peptide concentration of the plasma and pancreatic homogenate was determined immediately using tandem mass spectrometry (LC-MS/MS) analysis and the results are presented in Table 8.

[6] abbreviates: plasma, read-out: Peptide concentration, Plasma.

Where two headings read alike, the source gives them in different places.

One may read the AUC(0-t) as exposure summed from dosing to a finite time, without extrapolation to infinity. One may read the Cmax as the maximum level reached in the sampled fluid or tissue.

Consider “Ac-IGLHDPSHGTLPNGS-OH [Peptide 16, Ac-IGLHDPSHGTLPNGS-OH]”, for which, in series [1], the “stability in human plasma” value was “exhibited good stability in human plasma and were significantly more stable than INGAP-PP”. Also, in series [2], the “glucose-stimulated insulin release vs islets without peptide” value is on record as “released significantly more insulin than those cultured without the addition of peptides”. Further, in series [3], the area under the curve AUC(0-t) turned out to be 11400 ng·h/mL, the AUC(0-inf) was found to be 11400 ng·h/mL and the maximum concentration (Cmax) was determined as 14400 ng/mL. In addition, in series [4], the AUC(0-t) was found to be 12100 ng·h/mL, the AUC(0-inf) worked out at 12200 ng·h/mL and the Cmax turned out to be 18900 ng/mL.

For the substance “Ac-IGLHDPSHGTLPNGS-NH2 [Peptide 31, Ac-IGLHDPSHGTLPNGS-NH2]”, the “stability in human plasma” value in series [1] was “exhibited good stability in human plasma and were significantly more stable than INGAP-PP”. Moreover, the level at 0.5 h was 1630 ± 340 ng/mL in series [5] (pancreas (homogenate), pancreatic homogenate, read-out: Peptide concentration, Pancreas) and 15400 ± 3520 ng/mL in series [5] (setting [6]).

As for “H-IGLHDPSHGTLPNGS-OH [Peptide 1, H-IGLHDPSHGTLPNGS-OH, reference compound]”, the “glucose-stimulated insulin release vs islets without peptide” value in series [2] is “no stimulation was observed”. Moreover, in series [3], the exposure AUC(0-t) came out at 54.5 ng·h/mL, the AUC(0-inf) amounted to 58.3 ng·h/mL and the Cmax amounted to 141 ng/mL. For the same substance, in series [4], the AUC(0-t) was found to be 298 ng·h/mL, the AUC(0-inf) came to 305 ng·h/mL and the Cmax was 1240 ng/mL. The “Peptide concentration, Pancreas” value in series [5] (pancreatic homogenate) is recorded as “NA (Below the lower limit of quantitation (LLOQ) 2.5 ng/mL)”. Also, the level at 0.5 h in series [5] (setting [6]) worked out at 210 ± 107 ng/mL.

(Values after patent US9388215B2, “Compositions and methods of using islet neogenesis peptides and analogs thereof” (SHENZHEN HIGHTIDE BIOPHARMACEUTICAL, LTD., priority 2013, dated 2016).)
